Assays:
[1] = system: GLP/GIP/CT cyclase, RIN-m5F cells; assay: GLP/GIP/CT Cyclase (RIN) assay; format: cell-based, rat; details: cAMP, values without **
Protocol: GLP/GIP/CT Cyclase (RIN) Assay
(§1) Five μl of serially diluted peptides are transferred to the 384-well assay plate. Rat pancreas insulinoma cells (RIN-m5F) are detached from a tissue culture flask with Versene and washed once in buffer. Then RIN-m5F cells are resusupended in buffer at 2.5×10^6 cells/ml. Then 10 μl cells (2.5×10^4 cells) are added to all wells of the assay plate and cells are stimulated at room temperature in the dark for 30 minutes. The reaction is terminated with 10 μl of lysis buffer and incubated at room temperature for 4 hrs in the dark. cAMP content is measured using Perkin Elmer AlphaScreen™ cAMP assay kit and results are read on a Perkin Elmer Fusion fluorometer. The assay is completed in 384-well plates at 25 microliter volumes.

[2] = system: GLP-1 cyclase, rat thyroid carcinoma cells (6-23); assay: GLP-1 Cyclase (6-23) assay; format: cell-based; details: cAMP, 6-23 cells; values marked **
Protocol: as §1, with “thyroid carcinoma” for “pancreas insulinoma”, “(6-23)” for “(RIN-m5F)”, “6-23” for “RIN-m5F”, “3.0×10^6” for “2.5×10^6”, “(3.0×10^4” for “(2.5×10^4”, “μl” for “microliter”

[3] = system: NH/Swiss mice; assay: Glucose lowering assay; format: in vivo, mouse; details: IP, 2 nmol/kg, change in blood glucose relative to vehicle
Outline: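 Blood glucose was read by glucose oxidase biosensor on tail-prick samples before and 30, 60, 120, 180 and 240 min after intraperitoneal dosing (1 or 2 nmol/kg; vehicle 10% DMSO saline). Mice were female NH/Swiss, fasted 2 h; effect reported as percent change relative to vehicle, tested by ANOVA/Dunnett.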

[4] = Plasma stability; format: in vitro ADME; details: 20 μg/mL in plasma, 37° C., 0-5 hours
Outline: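 Quantification by LC-MS after MeOH quench (sample:MeOH 1:4) and centrifugation. Samples came from plasma spiked at 20 μg/mL and held at 37° C, taken at 0, 1, 2, 3, 4 and 5 h, each in triplicate.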

CC[C@H](C)[C@H](NC(=O)[C@H](Cc1ccccc1)NC(=O)[C@H](CC(C)C)NC(=O)[C@H](CCCNC(=N)N)NC(=O)[C@@H](NC(=O)[C@H](C)NC(=O)[C@H](CCC(=O)O)NC(=O)[C@H](CCC(=O)O)NC(=O)[C@H](CCC(=O)O)NC(=O)[C@H](CC(C)C)NC(=O)[C@H](Cc1ccc(O)cc1)NC(=O)[C@H](CCC(=O)O)NC(=O)[C@@H](NC(=O)[C@@H](NC(=O)[C@H](CC(=O)O)NC(=O)[C@H](CC(N)=O)NC(=O)[C@@H](NC(=O)[C@H](Cc1ccc(O)cc1)NC(=O)[C@@H](NC(=O)CNC(=O)[C@H](CCC(=O)O)NC(=O)CNC(=O)[C@@H](N)Cc1c[nH]cn1)[C@@H](C)O)[C@@H](C)O)C(C)C)[C@@H](C)O)C(C)C)C(=O)N[C@@H](CCC(=O)O)C(=O)N[C@@H](Cc1c[nH]c2ccccc12)C(=O)N[C@@H](CC(C)C)C(=O)N[C@@H](CCCCN)C(=O)N[C@@H](CCC(N)=O)C(=O)NCC(=O)NCC(=O)N1CCC[C@H]1C(=O)N[C@@H](CO)C(=O)N[C@@H](CO)C(=O)NCC(=O)N[C@@H](C)C(=O)N1CCC[C@H]1C(=O)N1CCC[C@H]1C(=O)N1CCC[C@H]1C(=O)N[C@@H](CO)C(N)=O [Cmpd 5130]
EC50 [1]: 0.89 nM | EC50 [2]: 0.0544 nM | GLU LOWERING AUC240 @2 nmol/kg [3]: −22% | plasma stability as compared to native GLP-1 [4]: increased plasma stability

Reference: US20100029554A1, “Composition and Methods for Treatment of Congestive Heart Failure” (Amylin Pharmaceuticals, Inc., priority 2006, published 2010)
